Experiments:
[1] = Oral half-life and peak plasma levels; type: in vivo
Excerpt: As used herein, bioavailability refers to the rate and extent of absorption. Methods for determining bioavailability are well known to those of skill in the art. For example, bioavailability of any of the compounds described herein can be determined empirically by administration of the compound to an animal, followed by taking blood samples over time and measuring the blood concentration of the compound. In vivo half life (t1/2) is defined as the time it takes for the concentration of the compound in the blood to be reduced by one-half. Estimations of the area under the curve for intravenous administration can be used to estimate the area under the curve for oral administration, ylelding bioavailability data. See, e.g., Milo Gibal (1991) Biopharmaceutics and Pharmacology, 4th edition (Lea and Sediger).
Table 2 lists oral half-life, bioavailability, and in vivo activity of selected exemplary compounds. The in vivo activity was measured in a pulmonary hypertension model and is a measure of the activity of the compounds at selected dosages.

hypertensive rat model = assay: Deoxycorticosterone acetate (DOCA)-salt hypertensive rat model; type: in vivo
Description: Selected compounds disclosed herein have been tested for activity in the deoxycorticosterone acetate (DOCA)-salt hypertensive rat model. To perform these tests, silastic MDX4-4210 elastomer implants containing 47 mg (DOCA) were prepared according to the method of Ornmsbee et al. ((1973) the J. Pharm. Sci. 62:255-257). Briefly, DOCA is incorporated into silicon rubber implants for sustained release. To prepare the implants the DOCA is incorporated into unpolymerized silicone rubber, catalyst is added and the mixture is cast in a hemicylindrical shape.
Sprague Dawley rats (7-8 weeks old) were unilaterally nephrectomized under ketamine anesthesia and a DOCA-implant was placed on the left lateral dorsal abdomen of the animal. The rats were allowed to recover for three weeks. During recovery they were permitted free access to normal rat chow and 0.9% NaCl drinking solution in place of drinking water. The rats develop hypertension within 3 weeks. […]
On the day of experimentation, catheters were inserted under brevital anesthesia into the right femoral artery for measurement of blood pressure, and into the right femoral vein for administration of a selected compound. The animals were placed in a restrainer and allowed to recover for a minimum of 60 min or until a steady mean arterial blood pressure was recorded. […] Blood pressure was recorded continuously for a further 10 hrs.

[2] = system: Pulmonary Hypertension model; assay: Pulmonary Hypertension model; type: in vivo, rat; set-up: key: ++: effective at 5 mg/kg; −: no effect at 5 mg/kg; +: effective at 15 mg/kg
Description: As used herein, efficacy refers to the maximal effect that can be produced by a compound. Efficacy can be determined by methods known to those of skill in the art. For example, it can be determined by the properties of the compound and its receptor-effector system and is reflected in the plateau of the concentration-effect curve. In vivo efficacy refers to efficacy which is determined in an animal model. For example, in vivo efficacy of the compounds described herein can be determined by hypoxia-induced pulmonary hypertension in rat. See, e.g., DiCarlo et al. (1995) Am. J. Physiol. 269:[…]-[…]. Table 2 lists oral half-life, bioavailability, and in vivo activity of selected exemplary compounds. The in vivo activity was measured in a pulmonary hypertension model and is a measure of the activity of the compounds at selected dosages.

human ETB receptor = target: T1, human ETB receptor (Homo sapiens, UniProt P24530); assay: Endothelin binding inhibition, Binding Test #2: competition with 125I-ET-1 for ETB receptors on transfected COS7 cell membranes; conditions: incubation at 24° C. (values marked †)
T1 construct: expressed in transfected cells; host or cells: COS7 cells
T1 sequence (P24530 27-442): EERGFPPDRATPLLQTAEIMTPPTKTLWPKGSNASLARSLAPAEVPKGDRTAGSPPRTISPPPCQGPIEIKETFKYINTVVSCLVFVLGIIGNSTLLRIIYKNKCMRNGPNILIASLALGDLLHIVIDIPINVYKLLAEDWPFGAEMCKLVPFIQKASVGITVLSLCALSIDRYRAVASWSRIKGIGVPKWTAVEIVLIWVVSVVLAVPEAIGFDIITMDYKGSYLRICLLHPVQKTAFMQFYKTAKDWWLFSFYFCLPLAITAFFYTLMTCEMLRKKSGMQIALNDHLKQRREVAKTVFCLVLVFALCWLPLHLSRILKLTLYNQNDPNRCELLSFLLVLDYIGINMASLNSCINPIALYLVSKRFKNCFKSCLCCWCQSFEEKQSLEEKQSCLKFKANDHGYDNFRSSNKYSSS
How it was run: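 Membranes from COS7 cells transfected with human ETB receptor, prepared in HEPES pH 7.4 with aprotinin, MnCl2/DNase treatment at 37° C for 30 min. Test compounds compete with 125I-labeled ET-1 for receptor binding; membrane used at 1 μg/50 μL binding buffer.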

- POt½ in Rat ([1]; oral): 7 h
- Peak Plasma Levels ([1]; rat, in vivo): 5.6 µg/mL
- IC50 (human ETB receptor): 18.7 µM
SMILES: Cc1cc(C)c(NC(=O)c2sccc2S(=O)(=O)Nc2onc(C)c2Cl)c(C)c1O [N-(4-chloro-3-methyl-5-isoxazolyl)-2-(3-hydroxy-2,4,6-trimethylphenylaminocarbonyl)thiophene-3-sulfonamide]
- decrease of blood pressure (hypertensive rat model): effective in decreasing blood pressure
- in vivo Efficacy [2]: ++
